Measured values from US8124743B2, “Purification of a bivalently active antibody using a non-chromatographic method” (President and Fellows of Harvard College, priority 2006, dated 2012).
“And” between values parts separate entries of the source, which are not always exact repeats. Equal values may be shown once. Read-outs that look alike come from different tables or passages of the source.

Tests used:
[1] = molecular target: rat anti-2,4-dinitrophenyl IgG (IgG^DNP, clone LO-DNP-2); experiment: Monovalent dissociation constant of hapten for anti-2,4-DNP IgG, method not given; type: binding; conditions: read-out: monovalent Kd (Kd^affinity) of hapten for IgG^DNP
[2] = test system: anti-2,4-DNP IgG (clone LO-DNP-2); experiment: SE-HPLC of formation and dissociation of cyclic IgG aggregates; type: biochemical, rat; conditions: for dissociation of IgG aggregates by excess monovalent hapten: about 1 mM monovalent hapten, SE-HPLC
Procedure: We used size-exclusion chromatography (SE-HPLC) to follow the purification process. This analytical technique has the advantage that we can resolve monomeric, dimeric, trimeric, and tetrameric antibody aggregates on the column. It has the disadvantage that these aggregates must be kinetically stable (in the absence of competing monovalent hapten) over the time required to carry out a separation (retention time, tr˜15 min).
Validation of Size-Exclusion Chromatography (SE-HPLC) to Examine Aggregates of IgG. Size-exclusion chromatography (SE-HPLC) can resolve the cyclic aggregates of antibodies from each other and from monomeric IgG (FIG. 6). The commercially available purified IgG gave predominantly one peak by SE-HPLC (FIG. 6a) at a retention time (˜15.6 min) consistent with the size of monomeric IgG (˜150 kDa) based on a molecular weight calibration plot (FIG. 3). We formed aggregates in >90% conversion by incubating IgG (2 μM) with 5-10 equivalents of bi and trivalent molecules in chart 1 for 12 hours. […] These antibody aggregates dissociated rapidly (<1 min) in the presence of excess monovalent hapten (6) (1 μM anti-2,4-DNP; 1 μM 1; 1000 μM 6) (FIG. 6c).

[3] = molecular target: IgG from clone (LO-DNP-2), anti-DNP; experiment: Fluorescence titration (tryptophan quenching) for the monovalent dissociation constant; type: binding, rat; conditions: read-out: monovalent dissociation constant (Kd^affinity)
Procedure: Determination of dissociation constant of antibody and 2,4-DNP. The binding of DNP derivatives to anti-DNP quenches the fluorescence of tryptophan residues of the antibody. We conducted a fluorescence titration to determine the monovalent dissociation constant (Kd^affinity) of the IgG from clone (LO-DNP-2) for Ac2DNP-Lys, and obtained a value of 0.40±0.08 nM.

| Molecule | Kd [1] | dissociation of IgG aggregates by excess monovalent hapten [2] | further results |
| --- | --- | --- | --- |
| 4-nitrophenyl [4-NP] | 500 nM and ~500 nM | – | – |
| NCCCC[C@H](Nc1ccc([N+](=O)[O-])cc1[N+](=O)[O-])C(=O)O [compound 6, 2,4-dinitrophenyl lysine] | – | completely dissociated | time for dissociation of antibody aggregates by excess monovalent hapten ([2]; 1 μM anti-2,4-DNP, 1 μM 1, 1000 μM 6): < 1 min |
| Ac2DNP-Lys | – | – | Kd [3]: 0.4 ± 0.08 nM |
| 2,4-dinitrophenyl [2,4-DNP] | – | – | Kd ([1]; listed as DNP): 8 nM and ~8 nM |
| O=[N+]([O-])c1ccc(OC2O[C@H](CO)[C@@H](O)[C@H](O)[C@H]2O)cc1 (stereo partly shown) [compound 7, 4-nitrophenylglucose] | ~500 nM | completely dissociated | – |
